# In patent US7674807B2, “Heterocycle-substituted n-phenyl-phthalamide derivatives, related compounds and their use as insecticides” (Bayer CropScience AG, priority 2004, dated 2010):
# How the values were obtained:
# [1] = tested on: larva of Spodoptera litura; assay: Test against larva of Spodoptera litura (leaf dip, sweet potato leaves); assay type: in vivo; settings: 20 ppm concentration of the active component; third instar larvae; counted after 7 days; 25° C.
# Experimental: Preparation of Test Solution:
# In order to make an appropriate formulation of an active compound, 1 part by weight of the active compound was mixed with the above-mentioned amount of solvent containing the above-mentioned amount of emulsifier and the mixture was diluted with water to a prescribed concentration.
# Leaves of sweet potato were soaked in the test solution diluted to a prescribed concentration with water, dried in the air and put in a dish of 9 cm diameter.
# 10 larvae of Spodoptera litura at the third instar were placed on the leaves and kept in a room at the constant temperature of 25° C. After 2 and 4 days further leaves of sweet potato were added and after 7 days the number of dead larvae was counted and the rate of death was calculated.
# In this test the results of 2 dishes at 1 section were averaged.
# [2] = tested on: larva of Cnaphalocrocis medinalis Guenee; assay: Test against larva of Cnaphalocrocis medinalis Guenee (sprayed paddy rice foliage); assay type: in vivo; settings: 20 ppm concentration of the active component; second instar larvae; counted after 7 days; 25° C.
# Experimental: Paddy rice (variety: Tamanishiki) planted in a pot was treated by spraying 50 ml per pot of the diluted aqueous solution of the prescribed concentration of the active compound prepared in the same manner as in the above-mentioned Biological Test Example 1. After the treated rice plant was dried in the air, their foliage part was cut in 4-5 cm length, which were put in a dish with 9 cm diameter with a sheet of filter paper and 2 ml of water. Five larvae of Cnaphalocrocis medinalis Guenee at the second instar were put in the dish that was placed in a room at the constant temperature of 25° C. After 2 and 4 days, each rest (each ⅓ amount) of foliage parts of rice plant were cut in the same manner and added to the dish. After 7 days the number of dead larvae was counted and the rate of death was calculated. In this test the results of 2 dishes at 1 section were averaged.
Structure (SMILES),"controlling effect, rate of death [1]","controlling effect, rate of death [2]"
Cc1cc(Cn2nc(C(F)(F)F)cc2C(F)(F)F)ccc1NC(=O)c1cccc(Cl)c1C(=O)NC(C)C[S+](C)[O-] (mixture of isomers) [compound 13],100%,100%
Cc1cc(Cn2nc(C(F)(F)F)cc2C(F)(F)F)ccc1NC(=O)c1cccc(Cl)c1C(=O)NC(C)C[S+](C)[O-] (mixture of isomers) [compound 14],100%,100%
Cc1cc(Cn2nc(C(F)(F)F)cc2C(F)(F)F)ccc1NC(=O)c1cccc(Br)c1C(=O)NC(C)C[S+](C)[O-] (mixture of isomers) [compound 51],100%,100%
Cc1cc(Cn2nc(C(F)(F)F)cc2C(F)(F)F)ccc1NC(=O)c1cccc(I)c1C(=O)NC(C)C[S+](C)[O-] (mixture of isomers) [compound 87],100%,100%
Cc1cc(Cn2nc(C(F)(F)F)cc2C(F)(F)F)ccc1NC(=O)c1cccc(I)c1C(=O)NC(C)C[S+](C)[O-] (mixture of isomers) [compound 88],100%,100%
Cc1cc(Cn2nc(C(F)(F)F)cc2C(F)(F)F)ccc1NC(=O)c1cccc(Cl)c1C(=O)NC(C)(C)C[S+](C)[O-] (racemic) [compound 9],100%,100%
CSCC(C)NC(=O)c1c(Cl)cccc1C(=O)Nc1ccc(Cn2nc(C(F)(F)F)cc2C(F)(F)F)cc1C (racemic) [compound 11],100%,100%
Cc1cc(Cn2nc(C(F)(F)F)cc2C(F)(F)F)ccc1NC(=O)c1cccc(Cl)c1C(=O)NC(C)CS(C)(=O)=O (racemic) [compound 15],100%,100%
CSCC(C)NC(=O)c1c(Br)cccc1C(=O)Nc1ccc(Cn2nc(C(F)(F)F)cc2C(F)(F)F)cc1C (racemic) [compound 48],100%,100%
Cc1cc(Cn2nc(C(F)(F)F)cc2C(F)(F)F)ccc1NC(=O)c1cccc(Br)c1C(=O)NC(C)CS(C)(=O)=O (racemic) [compound 52],100%,100%
CSCC(C)NC(=O)c1c(I)cccc1C(=O)Nc1ccc(Cn2nc(C(F)(F)F)cc2C(F)(F)F)cc1C (racemic) [compound 85],100%,100%
Cc1cc(Cn2nc(C(F)(F)F)cc2C(F)(F)F)ccc1NC(=O)c1cccc(I)c1C(=O)NC(C)CS(C)(=O)=O (racemic) [compound 89],100%,100%
CSCC(C)NC(=O)c1c(I)cccc1C(=O)Nc1ccc(Cn2nc(C(F)(F)F)cc2OC(F)F)cc1C (racemic) [compound 103],100%,100%
Cc1cc(Cn2nc(C(F)(F)F)cc2OC(F)F)ccc1NC(=O)c1cccc(I)c1C(=O)NC(C)CS(C)(=O)=O (racemic) [compound 107],100%,100%
CSCC(C)(C)NC(=O)c1c(Cl)cccc1C(=O)Nc1ccc(Cn2nc(C(F)(F)F)cc2C(F)(F)F)cc1C [compound 8],100%,100%
Cc1cc(Cn2nc(C(F)(F)F)cc2C(F)(F)F)ccc1NC(=O)c1cccc(Cl)c1C(=O)NC(C)(C)CS(C)(=O)=O [compound 10],100%,100%
CSCC(C)NC(=O)c1c(Cl)cccc1C(=O)Nc1ccc(Cn2nc(C(F)(F)F)cc2C(F)(F)F)cc1C (stereo not drawn) [compound 12],100%,100%
Cc1cc(Cn2nc(C(F)(F)F)cc2C(F)(F)F)ccc1NC(=O)c1cccc(Cl)c1C(=O)NC(C)CS(C)(=O)=O (stereo not drawn) [compound 16],100%,100%
CSCC(C)(C)NC(=O)c1c(Br)cccc1C(=O)Nc1ccc(Cn2nc(C(F)(F)F)cc2C(F)(F)F)cc1C [compound 45],100%,100%
Cc1cc(Cn2nc(C(F)(F)F)cc2C(F)(F)F)ccc1NC(=O)c1cccc(Br)c1C(=O)NC(C)(C)CS(C)(=O)=O [compound 47],100%,100%

Structure (SMILES),"controlling effect, rate of death [1]","controlling effect, rate of death [2]"
CSCC(C)NC(=O)c1c(Br)cccc1C(=O)Nc1ccc(Cn2nc(C(F)(F)F)cc2C(F)(F)F)cc1C (stereo not drawn) [compound 49],100%,100%
Cc1cc(Cn2nc(C(F)(F)F)cc2C(F)(F)F)ccc1NC(=O)c1cccc(Br)c1C(=O)NC(C)CS(C)(=O)=O (stereo not drawn) [compound 53],100%,100%
Cc1cc(Cn2nc(C(F)(F)F)cc2C(F)(F)F)ccc1NC(=O)c1cccc(I)c1C(=O)NC(C)C [compound 81],100%,100%
"CSCC(C)(C)NC(=O)c1c(I)cccc1C(=O)Nc1ccc(Cn2nc(C(F)(F)F)cc2C(F)(F)F)cc1C [compound 82, N^1-[4-(3,5-bistrifluoromethylpyrazol-1-ylmethyl)-2-methylphenyl]-N^2-(1,1-dimethyl-2-methylsulfanylethyl)-3-iodophthalamide]",100%,100%
"Cc1cc(Cn2nc(C(F)(F)F)cc2C(F)(F)F)ccc1NC(=O)c1cccc(I)c1C(=O)NC(C)(C)C[S+](C)[O-] (stereo not drawn) [compound 83, N^1-{4-[3,5-bis(trifluoromethyl)-1H-pyrazol-1-ylmethyl]-2-methylphenyl}-N^2-(2-methanesulfinyl-1,1-dimethylethyl)-3-iodophthalamide]",100%,100%
"Cc1cc(Cn2nc(C(F)(F)F)cc2C(F)(F)F)ccc1NC(=O)c1cccc(I)c1C(=O)NC(C)(C)CS(C)(=O)=O [compound 84, N^1-{4-[3,5-bis(trifluoromethyl)-1H-pyrazol-1-ylmethyl]-2-methylphenyl}-3-iodo-N^2-(2-methanesulfonyl-1,1-dimethylethyl)phthalamide]",100%,100%
CSCC(C)NC(=O)c1c(I)cccc1C(=O)Nc1ccc(Cn2nc(C(F)(F)F)cc2C(F)(F)F)cc1C (stereo not drawn) [compound 86],100%,100%
Cc1cc(Cn2nc(C(F)(F)F)cc2C(F)(F)F)ccc1NC(=O)c1cccc(I)c1C(=O)NC(C)CS(C)(=O)=O (stereo not drawn) [compound 90],100%,100%
CCSCC(C)NC(=O)c1c(I)cccc1C(=O)Nc1ccc(Cn2nc(C(F)(F)F)cc2C(F)(F)F)cc1C (stereo not drawn) [compound 91],100%,100%
CCS(=O)(=O)CC(C)NC(=O)c1c(I)cccc1C(=O)Nc1ccc(Cn2nc(C(F)(F)F)cc2C(F)(F)F)cc1C (stereo not drawn) [compound 93],100%,100%
CSCC(C)NC(=O)c1c(OS(C)(=O)=O)cccc1C(=O)Nc1ccc(Cn2nc(C(F)(F)F)cc2C(F)(F)F)cc1C (stereo not drawn) [compound 128],100%,100%
Cc1cc(Cn2nc(C(F)(F)F)cc2C(F)(F)F)ccc1NC(=O)c1cccc(OS(C)(=O)=O)c1C(=O)NC(C)CS(C)(=O)=O (stereo not drawn) [compound 132],100%,100%
CSCC(C)(C)NC(=O)c1c(Cl)cccc1C(=O)Nc1ccc(Cn2nc(C(F)(F)F)nc2C(F)(F)F)cc1C [compound 137],100%,100%
Cc1cc(Cn2nc(C(F)(F)F)nc2C(F)(F)F)ccc1NC(=O)c1cccc(Cl)c1C(=O)NC(C)(C)C[S+](C)[O-] (stereo not drawn) [compound 138],100%,100%
Cc1cc(Cn2nc(C(F)(F)F)nc2C(F)(F)F)ccc1NC(=O)c1cccc(Cl)c1C(=O)NC(C)(C)CS(C)(=O)=O [compound 139],100%,100%
Cc1cc(Cn2nc(C(F)(F)F)nc2C(F)(F)F)ccc1NC(=O)c1cccc(Cl)c1C(=O)NC(C)C[S+](C)[O-] (stereo not drawn) [compound 142],100%,100%
Cc1cc(Cn2nc(C(F)(F)F)nc2C(F)(F)F)ccc1NC(=O)c1cccc(Cl)c1C(=O)NC(C)C[S+](C)[O-] (stereo not drawn) [compound 143],100%,100%
Cc1cc(Cn2nc(C(F)(F)F)nc2C(F)(F)F)ccc1NC(=O)c1cccc(Cl)c1C(=O)NC(C)CS(C)(=O)=O (stereo not drawn) [compound 145],100%,100%
CSCC(C)(C)NC(=O)c1c(Cl)cccc1C(=O)Nc1ccc(Cn2nc(C(F)(F)C(F)(F)F)nc2C(F)(F)F)cc1C [compound 149],100%,100%
